Consider two molecules from publication PMC10443802, “Targeting a xenobiotic transporter to ameliorate vincristine-induced sensory neuropathy” (JCI Insight, 2023).

Several values for one entry are separate records, joined by “and”; a condition that tells them apart may be missing. Identical values can stand only once.

In series [1] the test system is mice.
The target of another series is T1, mOATP1B2 (Mus musculus, UniProt Q9JJL3).
T1 sequence (Q9JJL3 1-689): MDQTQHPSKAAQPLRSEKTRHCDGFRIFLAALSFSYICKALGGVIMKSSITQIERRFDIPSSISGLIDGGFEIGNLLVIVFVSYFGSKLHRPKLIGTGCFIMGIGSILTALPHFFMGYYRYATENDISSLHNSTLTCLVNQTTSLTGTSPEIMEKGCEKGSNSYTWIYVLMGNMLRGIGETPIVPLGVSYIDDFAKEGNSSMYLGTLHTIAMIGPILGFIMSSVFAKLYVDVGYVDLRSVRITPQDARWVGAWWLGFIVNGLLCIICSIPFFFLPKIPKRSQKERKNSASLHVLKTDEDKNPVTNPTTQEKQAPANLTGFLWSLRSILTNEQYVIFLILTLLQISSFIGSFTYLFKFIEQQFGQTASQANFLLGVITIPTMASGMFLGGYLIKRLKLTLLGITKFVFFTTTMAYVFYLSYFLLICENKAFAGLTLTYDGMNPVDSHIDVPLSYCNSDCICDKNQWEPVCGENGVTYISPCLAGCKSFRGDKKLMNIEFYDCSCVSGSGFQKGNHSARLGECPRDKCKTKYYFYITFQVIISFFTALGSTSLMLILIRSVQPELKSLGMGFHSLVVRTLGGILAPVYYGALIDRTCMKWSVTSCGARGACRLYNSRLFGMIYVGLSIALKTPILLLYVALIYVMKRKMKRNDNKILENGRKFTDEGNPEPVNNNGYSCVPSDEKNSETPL
Briefly: Inhibition of EβG uptake in HEK293 cells overexpressing mOATP1B2. To be noted: HEK293 mOATP1B2; inhibitor 10 μM, 15-min pre-incubation. It counts as cell-based.

In series [2] the test system is mice. Briefly: Nerve conduction studies (sciatic/digital and caudal nerve action potential amplitude and conduction velocity).
The test system of series [3] is mice. Description: Thermal hyperalgesia, Hargreaves test (paw withdrawal latency).
In a further series the test system is DRG neurons. Briefly: DRG morphology and morphometry (neuron cell area). It counts as in vivo, mouse.
The nature of series [4]: Vincristine accumulation in DRG and liver (tissue to plasma AUC ratio).
Experimental: injection at a dose of 1 mg/kg. Whole blood samples were collected 0.08, 0.25, 0.5, 1, and 4 h, and livers were collected at the final time point.
specimens were stored at -80°C until further processing.
stainless steel bead (Qiagen) and processed for 4 min at 40 Hz. Finally, the beads were removed, and the homogenized samples were stored at -80°C until analysis by LC-MS/MS.
Pharmacokinetic parameters were calculated by non -compartmental analysis using Phoenix WinNonlin version 8.0 (Certara). Peak plasma concentration (C max) was determined by visual inspection of the data from the concentration-time curves. The linear trapezoidal rule was used to obtain the area under the plasma concentration-time curve (AUC), and drug levels in tissues were corrected for
Quantiva triple quadrupole mass spectrometer from Thermo Fisher Scientific was used for LC-MS/MS
analysis. An Accucore aQ column (150 × 2.1 mm, dp = 2.6 μm, Thermo Fisher Scientific) was protected
volume was 5.0 μL. The temperature of the autosampler rack was 4°C, and the temperature of the
column was maintained at 50°C. Mobile phase A consisted of water with 0.1% (v/v) formic acid and
mobile phase B consisted of acetonitrile: methanol (1:1) with 0.1% (v/v) formic acid. The total run time […]
Precursor molecular ions and product ions were recorded for confirmation and
quantification was 5 ng/mL. […]
The target of the next series is hOATP2B1 (Homo sapiens, UniProt O94956). Briefly: Vincristine uptake screen, HeLa cells overexpressing hOATP2B1. It counts as in vitro ADME. As for the experimental part:
(§1) Relative uptake is expressed as percentage change compared with empty vector controls (n = 4–14 per group). […] Human OATP1B1 and OATP1B3 transporter–overexpressed cells were used as positive controls; empty vector controls were used as the negative control. […] Mechanical allodynia (C), thermal hyperalgesia (D), and sciatic nerve maximal action potential amplitudes (E) are expressed as percentage change relative to baseline values (n = 6–8 per group). Statistical analysis was performed using a 2-way ANOVA with Bonferroni’s post hoc test. **P < 0.01, ***P < 0.001, ****P < 0.0001, compared with baseline values. […] Data are shown as mean ± SEM. […]
(§2) transfected with transporters of interest, including hOAT1, hOAT3, hOAT4, hOATP1A2, hOATP3A1, hOATP4A1, hOATP5A1, hOATP1C1, hOATP1B1, hOATP1B3, hOATP2B1, hOCT1, hOCT2, hOCTN1, hOCTN2, hASBT, hNTCP, hNPT1, hMATE1, hOSTα/β, hPEPT1, hPEPT2, rOatp1a1, rOatp1a4, rOatp1a5, rOatp1b2, rNtcp, rAsbt, rOat1, and rOct1. Cells were transfected with expression plasmid or vector control lacking any insert using Lipofectin reagent (Invitrogen). […] The cellular radioactivity was quantified by liquid scintillation counting as described above. […]
(§3) Samples were analyzed using real-time quantitative PCR and Taqman Probes (Applied Biosystems). The relative gene expression was determined using the ΔΔCt method, and normalized to the mouse or human housekeeping gene, GAPDH. […]

The next series concerns the target rOATP1A1 (Rattus norvegicus, UniProt P46720). Description: Vincristine uptake screen, HeLa cells overexpressing rOATP1A1. Format: in vitro ADME. As for the experimental part:
as §1, §2, §3

The target in a further series is hMATE1 (Homo sapiens, UniProt Q96FL8). Description: Substrate uptake in HEK293 cells overexpressing hMATE1. The following applies: HEK293 human MATE1.
hMATE1, sequence (Q96FL8 whole entry): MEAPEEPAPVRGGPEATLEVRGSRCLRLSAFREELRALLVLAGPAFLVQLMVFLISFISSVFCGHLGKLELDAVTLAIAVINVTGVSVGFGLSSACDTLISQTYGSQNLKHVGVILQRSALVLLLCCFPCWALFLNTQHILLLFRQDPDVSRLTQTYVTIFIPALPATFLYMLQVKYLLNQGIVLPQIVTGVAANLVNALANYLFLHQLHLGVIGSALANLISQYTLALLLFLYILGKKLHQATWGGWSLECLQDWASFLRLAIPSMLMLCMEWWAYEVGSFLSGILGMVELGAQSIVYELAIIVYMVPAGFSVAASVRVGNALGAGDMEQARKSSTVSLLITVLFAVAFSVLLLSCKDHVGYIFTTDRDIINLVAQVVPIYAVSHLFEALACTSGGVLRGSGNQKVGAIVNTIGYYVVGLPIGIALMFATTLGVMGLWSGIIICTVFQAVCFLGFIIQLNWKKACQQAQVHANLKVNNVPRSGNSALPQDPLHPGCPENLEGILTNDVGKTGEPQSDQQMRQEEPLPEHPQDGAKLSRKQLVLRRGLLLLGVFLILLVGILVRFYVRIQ
Setting [5] is: OATP1B2(-/-) mice + Nilotinib, Baseline.
Where [6] appears, read: OATP1B2(-/-) mice + Nilotinib, Week 4.
Where [7] appears, read: WT mice, nilotinib 100 mg/kg p.o. 30 min before each vincristine 1 mg/kg, 4 weeks.
Where [8] appears, read: Wild-type mice + Nilotinib, Baseline.
Setting [9] is: Wild-type mice + Nilotinib, Week 4.
Setting [10] is: KO (OATP1B2-/-) mice, vincristine 1 mg/kg weekly i.p. + vehicle pretreatment, 4 weeks.
Setting [11] is: OATP1B2(-/-) mice, vincristine 1 mg/kg weekly, Week 4.

hOATP2B1, sequence (O94956 whole entry): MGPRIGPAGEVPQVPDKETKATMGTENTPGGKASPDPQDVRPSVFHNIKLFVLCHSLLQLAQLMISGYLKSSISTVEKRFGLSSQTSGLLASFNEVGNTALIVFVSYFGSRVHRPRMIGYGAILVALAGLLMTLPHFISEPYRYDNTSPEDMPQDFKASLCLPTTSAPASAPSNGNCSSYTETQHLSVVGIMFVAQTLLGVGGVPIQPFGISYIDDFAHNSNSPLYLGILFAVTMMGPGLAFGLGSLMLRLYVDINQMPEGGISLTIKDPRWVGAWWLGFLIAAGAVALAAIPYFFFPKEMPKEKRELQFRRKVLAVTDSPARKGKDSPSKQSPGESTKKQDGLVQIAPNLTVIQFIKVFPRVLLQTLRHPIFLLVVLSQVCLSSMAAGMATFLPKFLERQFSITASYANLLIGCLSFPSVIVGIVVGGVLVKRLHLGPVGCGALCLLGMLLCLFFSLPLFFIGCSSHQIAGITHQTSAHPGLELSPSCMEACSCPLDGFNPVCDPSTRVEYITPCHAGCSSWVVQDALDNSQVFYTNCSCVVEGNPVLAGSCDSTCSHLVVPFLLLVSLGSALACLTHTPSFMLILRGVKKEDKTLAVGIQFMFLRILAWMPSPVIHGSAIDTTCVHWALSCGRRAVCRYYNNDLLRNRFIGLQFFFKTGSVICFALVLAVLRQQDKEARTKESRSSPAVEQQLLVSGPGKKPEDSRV
rOATP1A1, sequence (P46720 whole entry): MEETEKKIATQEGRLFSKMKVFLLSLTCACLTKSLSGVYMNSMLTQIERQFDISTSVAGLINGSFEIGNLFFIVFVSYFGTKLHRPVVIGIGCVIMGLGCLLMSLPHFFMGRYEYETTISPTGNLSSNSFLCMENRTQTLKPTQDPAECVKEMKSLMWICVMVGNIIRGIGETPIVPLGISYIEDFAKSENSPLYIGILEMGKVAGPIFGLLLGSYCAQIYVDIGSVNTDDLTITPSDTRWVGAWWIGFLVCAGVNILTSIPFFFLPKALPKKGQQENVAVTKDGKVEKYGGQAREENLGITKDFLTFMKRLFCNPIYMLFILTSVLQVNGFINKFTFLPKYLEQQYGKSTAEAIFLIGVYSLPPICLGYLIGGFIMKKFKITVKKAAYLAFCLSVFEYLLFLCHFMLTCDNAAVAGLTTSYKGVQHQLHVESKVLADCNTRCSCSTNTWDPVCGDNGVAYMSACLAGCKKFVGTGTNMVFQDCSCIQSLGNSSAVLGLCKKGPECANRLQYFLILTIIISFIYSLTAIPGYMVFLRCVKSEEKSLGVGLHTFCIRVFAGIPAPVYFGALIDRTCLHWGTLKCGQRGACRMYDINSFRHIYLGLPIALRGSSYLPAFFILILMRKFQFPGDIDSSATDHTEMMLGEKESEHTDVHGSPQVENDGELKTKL
Experimental for hMATE1: on OATP1B1, OATP1B3, or OATP1B2 function was evaluated using EβG (Axxora LLC) as the
transfected with transporters of interest, including hOAT1, hOAT3, hOAT4, hOATP1A2, hOATP3A1, hOATP4A1, hOATP5A1, hOATP1C1, hOATP1B1, hOATP1B3, hOATP2B1, hOCT1, hOCT2, hOCTN1, hOCTN2, hASBT, hNTCP, hNPT1, hMATE1, hOSTα/β, hPEPT1, hPEPT2, rOatp1a1, rOatp1a4, rOatp1a5, rOatp1b2, rNtcp, rAsbt, rOat1, and rOct1. Cells were transfected with expression plasmid or vector control lacking any insert using Lipofectin reagent (Invitrogen). Sixteen hours thereafter, cells were washed with transport media (OPTIMEM, Invitrogen) and treated with radiolabeled drug. At various time intervals, cells were washed three times with ice-cold PBS and then lysed with 1% sodium dodecyl sulfate. The cellular radioactivity was quantified by liquid scintillation counting as described above. Similar analyses were performed in HEK293 cells transfected with hOATP1A2, hOATP1C1, mMATE1, and hMATE1, with cells seeded in poly lysine pre-coated 12-well plates. For hOATP1A2 and hOATP1C1, transient transfections were performed with either an empty vector, OATP1A2, or OATP1C1 using Lipofectamine 2000 according to the manufacturers protocol (Invitrogen).

On to `Cc1cn(-c2cc(NC(=O)c3ccc(C)c(Nc4nccc(-c5cccnc5)n4)c3)cc(C(F)(F)F)c2)cn1` [Nilotinib, nilotinib], for which, in the series with mice [1] (100 mg/kg orally 30 minutes before each of 4 vincristine doses of 1 mg/kg), the “Protection against vincristine-associated changes in mechanical allodynia, thermal hyperalgesia and sciatic nerve maximal AMP” value is listed as “effectively protected against treatment-associated changes”. Also, at mOATP1B2, the “EβG uptake (% of vehicle)” value is 37.5921 % of vehicle and 30.8257 % of vehicle and 32.2185 % of vehicle. Besides, the Caudal nerve amplitude with mice [2] (setting [5]) was 95.6% and 93.7% and 108.6% and 106% and 98.1%; in the series with mice [2] (setting [6]), 89.3% and 94% and 95.6% and 104.4% and 86.9%; in the series on mice [2] (setting [8]), 120.6% and 88.2% and 115.9% and 89.2% and 91.2% and 94.8%; with mice [2] (setting [9]) it was 63.6% and 79.9% and 91.5% and 110.8% and 56.5% and 79.7%. Besides, the Caudal nerve velocity is 102.8% and 100.9% and 101.1% and 98% and 97.3% in the series on mice [2] (setting [5]); 97.1% and 98.5% and 95% and 100.3% and 98.1% and 98.7% with mice [2] (setting [6]); 98.2% and 90.4% and 108% and 104.2% and 102% and 97.3% with mice [2] (setting [8]); 92.7% and 93.3% and 98.1% and 103.4% and 110.3% and 95.5% with mice [2] (setting [9]). For the same molecule, the Sciatic nerve amplitude was 114.4% and 121.2% and 118.7% and 82.8% and 93.6% and 69.3% in the series on mice [2] (setting [5]); 108.6 %Δ from baseline and 88.8 %Δ from baseline and 77.9 %Δ from baseline and 89.5 %Δ from baseline and 98.8 %Δ from baseline and 89.1 %Δ from baseline in the series on mice [2] (setting [7]); 97.8% and 93% and 117% and 84.6% and 113.5% and 94% with mice [2] (setting [8]); 89.1% and 108.6% and 88.8% and 77.9% and 89.5% and 98.8% in the series with mice [2] (setting [9]). Also, the Sciatic nerve velocity is 95.7% and 106.4% and 97.8% and 107.3% and 98.7% and 94.1% with mice [2] (setting [5]); 92.3% and 108.6% and 101.5% and 100.5% and 93.7% and 102.8% in the series with mice [2] (setting [6]); 102.2% and 108.4% and 96.7% and 95.6% and 94.8% with mice [2] (setting [8]); 101.8% and 112.7% and 95.6% and 97.9% and 93.4% and 98.9% in the series on mice [2] (setting [9]). Further, the “Paw withdrawal latency (%Δ from baseline)” value was 81.1 %Δ from baseline and 88.2 %Δ from baseline and 119.5 %Δ from baseline and 100.4 %Δ from baseline and 93.8 %Δ from baseline and 69.5 %Δ from baseline in the series with mice [3] (KO (OATP1B2-/-) mice, nilotinib 100 mg/kg p.o. 30 min before each vincristine 1 mg/kg, 4 weeks); 137.5 %Δ from baseline and 110.5 %Δ from baseline and 107.4 %Δ from baseline and 126 %Δ from baseline and 95.3 %Δ from baseline and 92.7 %Δ from baseline with mice [3] (setting [7]). Besides, the “Cell area changes (%Δ from baseline)” value with DRG neurons (OATP1B2(-/-) mice + Nilotinib) was 0.695% and -1.012% and -0.86%; in the series with DRG neurons (Wild-type mice + Nilotinib) it was 0.351% and -0.994% and -0.034%. In the series on DRG neurons (nilotinib 100 mg/kg p.o. pretreatment), the “Prevention of vincristine-induced reduction in cell size of DRG neurons” value was “could be prevented by pretreatment with nilotinib”. Besides, the “Influence of pretreatment on accumulation of vincristine in whole DRG samples” value in series [4] (nilotinib 100 mg/kg, vincristine 1 mg/kg) is on record as “significantly diminished by nilotinib”.
In the case of `CC[C@]1(O)C[C@H]2CN(CCc3c([nH]c4ccccc34)[C@@](C(=O)OC)(c3cc4c(cc3OC)N(C=O)[C@H]3[C@@](O)(C(=O)OC)[C@H](OC(C)=O)[C@]5(CC)C=CCN6CC[C@]43[C@@H]65)C2)C1` [Vincristine, vincristine], the “Vincristine uptake (% of vector control)” value is 113.00 % of vector control and 80.00 % of vector control and 88.00 % of vector control and 105.00 % of vector control and 83.00 % of vector control and 131.00 % of vector control and 125.00 % of vector control and 135.00 % of vector control at hOATP2B1; 102.00 % of vector control and 84.00 % of vector control and 73.00 % of vector control and 95.00 % of vector control and 74.00 % of vector control and 58.00 % of vector control and 71.00 % of vector control and 62.00 % of vector control on rOATP1A1. Besides, in the series on mice [1] (mouse, in vivo), the “Protection against treatment-related mechanical allodynia by OATP1B2 deficiency” value is on record as “protection against treatment-related mechanical allodynia was only observed”. In addition, the Sciatic nerve amplitude is 107.5 %Δ from baseline and 81.9 %Δ from baseline and 90.9 %Δ from baseline and 97.4 %Δ from baseline and 87.3 %Δ from baseline and 91.9 %Δ from baseline and 109.9 %Δ from baseline in the series with mice [2] (setting [10]); 90.9 %Δ from baseline and 97.4 %Δ from baseline and 87.3 %Δ from baseline and 91.9 %Δ from baseline and 109.9 %Δ from baseline and 107.5 %Δ from baseline and 81.9 %Δ from baseline in the series on mice [2] (setting [11]). Also, the “Paw withdrawal latency (%Δ from baseline)” value with mice [3] (setting [10]) is 115.4 %Δ from baseline and 102.8 %Δ from baseline and 99.5 %Δ from baseline and 93.2 %Δ from baseline and 105.4 %Δ from baseline and 88 %Δ from baseline and 77.4 %Δ from baseline; in the series on mice [3] (setting [11]) it was 94.3 %Δ from baseline and 92.7 %Δ from baseline and 101.2 %Δ from baseline and 102.2 %Δ from baseline and 111.0 %Δ from baseline and 84.6 %Δ from baseline and 112.1 %Δ from baseline; in the series on mice [3] (WT mice, vincristine 1 mg/kg weekly i.p. + vehicle pretreatment, 4 weeks), 66.8 %Δ from baseline and 70.6 %Δ from baseline and 94.2 %Δ from baseline and 54.6 %Δ from baseline and 68.3 %Δ from baseline and 64.2 %Δ from baseline and 82.5 %Δ from baseline; with mice [3] (Wild-type mice, vincristine 1 mg/kg weekly, Week 4), 61.8 %Δ from baseline and 39.1 %Δ from baseline and 56.0 %Δ from baseline and 42.8 %Δ from baseline and 56.3 %Δ from baseline and 55.6 %Δ from baseline. Moreover, the “Cell size of DRG neurons” value in the series on DRG neurons (WT mice, vincristine 1 mg/kg weekly, 4 weeks) was “reduction in cell size of DRG neurons”. The “Contribution of transporter to cellular uptake of vincristine” value at hMATE1 is listed as “do not appreciably contribute to the cellular uptake of vincristine”. Also, in series [4] (OATP1B2-deficient vs WT mice, LC/MS/MS or MALDI-MS imaging), the “Uptake of vincristine in liver and whole DRG samples” value is reported as “decreased uptake of vincristine”.
